The data set can be described thus: Half-life for the conversion of compound to the corresponding N-peptide under pseudo physiological conditions (0.04 M phosphate, pH 7.4 and 37 degree C). Type of data set: ADME. The note with it: phosphate buffer.
With `CCC(NC(=O)C(NC)C(OC(=O)C(NC(=O)OCc1ccccc1)C(C)C)C(C)C)C(=O)NCCc1ccc(OC)c(OC)c1` (stereo not drawn), the half-life amounted to 1.58 h.
Regarding `CCC(NC(=O)C(N)C(OC(=O)C(NC(=O)OCc1ccccc1)C(C)C)C(C)C)C(=O)NCCc1ccc(OC)c(OC)c1` (stereo not drawn), the half-life was 0.0667 h.
On to `CNC1C(=O)NCCCCN(C)C(C(C)C)C(=O)OC1C(C)C` (stereo not drawn), for which the half-life amounted to 6.17 h. Compared with the last molecule, the half-life is about 93-fold higher.

As a reminder, the half-life is the time needed for the level to fall by half in the phase considered. Read a low half-life as rapid decline.

(Values after ChEMBL document CHEMBL1128080, “Structural Factors affecting the kinetics of O,N-acyl transfer in potential O-peptide prodrugs” (Bioorg Med Chem Lett, 1995).)
